Data published in EP0311163A2, “Use of site-specific modified lipolytic enzymes for the selective hydrolysis of organized lipid structures” (DUPHAR INTERNATIONAL RESEARCH B.V, priority 1987, dated 1989).

Key:
Test in all cases: Binding to micellar cis-9-octadecenyl phosphocholine by UV absorption difference spectroscopy
Conditions in all cases: micellar ligand, N = number of lipid monomers per molecule of enzyme, KD = micellar dissociation constant, read-out: N.KD apparent dissociation constant
[1] = target: T1, Porcine pancreatic phospholipase A₂, [ε-Ol-Lys¹¹⁶]-AMPA (Sus scrofa, UniProt P00592)
T1 construct: Conversion of pro-PLA (i.e. Prec) into [ε-Acyl-Lys¹¹⁶]-AMPA; from tissue; host or cells: pig pancreas; chemically amidinated and oleoylated at Lys116
T1 sequence (P00592 23-146): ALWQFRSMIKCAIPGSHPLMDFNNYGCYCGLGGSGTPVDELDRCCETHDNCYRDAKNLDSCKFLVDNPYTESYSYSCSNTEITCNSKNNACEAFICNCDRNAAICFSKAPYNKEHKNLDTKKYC
From the text: The following methods, in which the abbreviations used have the meanings given hereinafter, are used for determining the enzymatic activity, the lipid binding properties and the penetrating capacity of the site-specific mono-acylated phospholipases A2 belonging to the invention: -PLA: phospholipase […]: fully ε-amidinated pro-PLA -AMPA: fully ε-amidinated PLA -t-Boc: tertiary butoxycarbonyl -For: formyl -TFA: trifluoroacetic acid -Tris: tri(hydroxymethyl)amino methane -DFP: diisopropylfluorophosphate -DEAE: diethylamino ethyl -CM: carboxymethyl -FPLC: fast protein liquid chromatography -LC: liquid chromatography -TPCK: […]-2-ethanesulphonic acid -DABITC: dimethylamino azobenzene-iso-thiocyanate. • a. Protein concentrations are determined from the absorption at 280 nm using E 1 cm (1%) of 13.0 for porcine and bovine pancreatic ε-amidinated PLA and the mono-acylated analogs thereof. […] Monolayer experiments are carried out using the zero order through with two compartments and the surface barostat technique for measuring phospholipid hydrolysis ([…] and De Haas, Chem. Phys. Lipids, 10, (1973), 127-136). Calculation of the induction time (τ) is carried out as described by […] et al. J. Biol. Chem. 248 (1973), 4023-4034). Surface tension (π) is measured by means of the plate method by Wilhelmy using a thin platinum plate attached to a Beckman R II C Model LM 600 microbalance. • d. […]

[2] = target: T2, Bovine pancreatic phospholipase A₂ (PLA), native (Bos taurus, UniProt P00593)
T2 construct: pancreatic pro-PLA's can be purified and converted into the corresponding PLA's; from tissue; host or cells: bovine pancreas
T2 sequence (P00593 23-145): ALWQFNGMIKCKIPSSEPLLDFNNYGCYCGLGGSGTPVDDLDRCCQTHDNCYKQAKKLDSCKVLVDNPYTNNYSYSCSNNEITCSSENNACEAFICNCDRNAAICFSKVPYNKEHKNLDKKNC
From the text: (§1) The following methods, in which the abbreviations used have the meanings given hereinafter, are used for determining the enzymatic activity, the lipid binding properties and the penetrating capacity of the site-specific mono-acylated phospholipases A2 belonging to the invention: -PLA: phospholipase […]: fully ε-amidinated pro-PLA -AMPA: fully ε-amidinated PLA -t-Boc: tertiary butoxycarbonyl -For: formyl -TFA: trifluoroacetic acid -Tris: tri(hydroxymethyl)amino methane -DFP: diisopropylfluorophosphate -DEAE: diethylamino ethyl -CM: carboxymethyl -FPLC: fast protein liquid chromatography -LC: liquid chromatography -TPCK: […]-2-ethanesulphonic acid -DABITC: dimethylamino azobenzene-iso-thiocyanate. • a. Protein concentrations are determined from the absorption at 280 nm using E 1 cm (1%) of 13.0 for porcine and bovine pancreatic ε-amidinated PLA and the mono-acylated analogs thereof. […] Monolayer experiments are carried out using the zero order through with two compartments and the surface barostat technique for measuring phospholipid hydrolysis ([…] and De Haas, Chem. Phys. Lipids, 10, (1973), 127-136). Calculation of the induction time (τ) is carried out as described by […] et al. J. Biol. Chem. 248 (1973), 4023-4034). Surface tension (π) is measured by means of the plate method by Wilhelmy using a thin platinum plate attached to a Beckman R II C Model LM 600 microbalance. • d. Kinetic measurements with micellar diC8PC are carried out according to De Haas et al, Biochem. Biophys. Acta, 239, (1971) 252-266. […] From the table it appears that the presence of a covalently attached long chain fatty acid on […] or […] considerably improves the binding of the enzyme to the zwitterionic detergent. A larger chain length of the fatty acid leads to a lower apparent dissociation constant (N.KD), which means a greater affinity to the organized lipid-water interface which is formed by the micellar substrate analog. [table]

[3] = target: T3, Bovine pancreatic phospholipase A₂, AMPA (fully ε-amidinated PLA) (Bos taurus, UniProt P00593)
T3 construct: fully ε-amidinated according to the method by Wallace and Harris, Biochem. J., 217, (1984), 589-594, and converted into AMPA; from tissue; host or cells: bovine pancreas; chemically amidinated as the pro-enzyme, then converted to the active enzyme
T3 sequence (P00593 23-145): as above
From the text: as §1

[4] = target: T4, Bovine pancreatic phospholipase A₂, [Arg⁶,ε-Pal-Lys¹⁰]-AMPA (Bos taurus, UniProt P00593, N28R)
T4 construct: Conversion of fully ε-amidinated bovine pancreatic AMPrec in [Arg⁶, ε-Pal-Lys¹⁰]-AMPA; from tissue; host or cells: bovine pancreas; semisynthetic: amidinated fragment 11-123 re-elongated with Pal-Lys, Ile, Met and Ala.Leu.Trp.Gln.Phe.Arg.Gly
T4 sequence (P00593 23-145 N28R): as the sequence (P00593 23-145) above, with N6R counted along it
From the text: as §1

[5] = target: T5, Bovine pancreatic phospholipase A₂, [Arg⁶]-AMPA (Bos taurus, UniProt P00593, N28R)
T5 construct: fully ε-amidinated according to the method by Wallace and Harris, Biochem. J., 217, (1984), 589-594, and converted into AMPA; from tissue; host or cells: bovine pancreas
T5 sequence (P00593 23-145 N28R): as the sequence (P00593 23-145) above, with N6R counted along it
From the text: as §1

[6] = target: T6, Porcine pancreatic phospholipase A₂ (PLA), native (Sus scrofa, UniProt P00592)
T6 construct: pancreatic pro-PLA's can be purified and converted into the corresponding PLA's; from tissue; host or cells: pig pancreas
T6 sequence (P00592 23-146): as the sequence (P00592 23-146) above
From the text: as §1

[7] = target: T7, Porcine pancreatic phospholipase A₂, AMPA (fully ε-amidinated PLA) (Sus scrofa, UniProt P00592)
T7 construct: fully ε-amidinated according to the method by Wallace and Harris, Biochem. J., 217, (1984), 589-594, and converted into AMPA; from tissue; host or cells: pig pancreas; chemically amidinated as the pro-enzyme, then converted to the active enzyme
T7 sequence (P00592 23-146): as above
From the text: as §1

[8] = target: T8, Porcine pancreatic phospholipase A₂, [ε-Ac-Lys¹¹⁶]-AMPA (Sus scrofa, UniProt P00592)
T8 construct: Conversion of pro-PLA (i.e. Prec) into [ε-Acyl-Lys¹¹⁶]-AMPA; from tissue; host or cells: pig pancreas; chemically amidinated and acetylated at Lys116
T8 sequence (P00592 23-146): as above
From the text: as §1

[9] = target: T9, Porcine pancreatic phospholipase A₂, [ε-Cap-Lys¹¹⁶]-AMPA (Sus scrofa, UniProt P00592)
T9 construct: Conversion of pro-PLA (i.e. Prec) into [ε-Acyl-Lys¹¹⁶]-AMPA; from tissue; host or cells: pig pancreas; chemically amidinated and caprinoylated at Lys116
T9 sequence (P00592 23-146): as above
From the text: as §1

[10] = target: T10, Porcine pancreatic phospholipase A₂, [ε-Lau-Lys¹¹⁶]-AMPA (Sus scrofa, UniProt P00592)
T10 construct: Conversion of pro-PLA (i.e. Prec) into [ε-Acyl-Lys¹¹⁶]-AMPA; from tissue; host or cells: pig pancreas; chemically amidinated and lauroylated at Lys116
T10 sequence (P00592 23-146): as above
From the text: as §1

[11] = target: T11, Porcine pancreatic phospholipase A₂, [ε-Mal-Lys¹¹⁶]-AMPA (Sus scrofa, UniProt P00592)
T11 construct: Conversion of pro-PLA (i.e. Prec) into [ε-Acyl-Lys¹¹⁶]-AMPA; from tissue; host or cells: pig pancreas; chemically amidinated and maleylated at Lys116
T11 sequence (P00592 23-146): as above
From the text: as §1

[12] = target: T12, Porcine pancreatic phospholipase A₂, [ε-NH₂-Lys¹¹⁶]-AMPA (Sus scrofa, UniProt P00592)
T12 construct: incubated with 0.1% (wt/wt) trypsin at pH 8.0 (10 mM Tris, 5 mM Ca²⁺) in order to obtain [ε-NH₂-Lys-]AMPA; from tissue; host or cells: pig pancreas; partial amidination in the presence of diC8GS, then trypsin conversion of the pro-enzyme
T12 sequence (P00592 23-146): as above
From the text: as §1

[13] = target: T13, Porcine pancreatic phospholipase A₂, [ε-Pal-Lys¹¹⁶]-AMPA (Sus scrofa, UniProt P00592)
T13 construct: Conversion of pro-PLA (i.e. Prec) into [ε-Acyl-Lys¹¹⁶]-AMPA; from tissue; host or cells: pig pancreas; chemically amidinated and palmitoylated at Lys116
T13 sequence (P00592 23-146): as above
From the text: as §1

**Q.** `CCCCCCCC/C=C\CCCCCCCCOP(=O)([O-])OCC[N+](C)(C)C` [cis-9-octadecenylphosphocholine] was tested. Which Kd [1] did it give?
**A.** 18 µM

**Q.** What about the Kd [2] of the same compound?
**A.** 660 µM

**Q.** What about the Kd [3] of the same compound?
**A.** 3.2 mM

**Q.** What about the Kd [4] of the same compound?
**A.** 20 µM

**Q.** What about the Kd [5] of the same compound?
**A.** 120 µM

**Q.** And the Kd [6]?
**A.** 58 µM

**Q.** What about the Kd [7] of the same compound?
**A.** 76 µM

**Q.** What about the Kd [8] of the same compound?
**A.** 38 µM

**Q.** What about the Kd [9] of the same compound?
**A.** 33 µM

**Q.** What about the Kd [10] of the same compound?
**A.** 29 µM

**Q.** And the Kd [11]?
**A.** 43 µM

**Q.** What about the Kd [12] of the same compound?
**A.** 44 µM

**Q.** What about the Kd [13] of the same compound?
**A.** 12 µM
